Assay [1] concerns the target T1, NMDA receptor subunits 1A/2A (Rattus norvegicus, UniProt P35439+Q00959).
T1 construct: expressed in transfected cells; host or cells: Xenopus laevis oocytes (cRNA injection; clones from Dr. P. H. Seeburg)
The assay is described as follows: Electrophysiological assay at NMDA receptor subunits expressed in Xenopus oocytes, 1A/2A. The class given is cell-based. The following applies: glutamate 100 μm and glycine 1-100 μm. The procedure, abridged: (§1)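 Two-electrode voltage clamp of Xenopus oocytes injected with rat NR1A plus NR2A, 2B or 2C cRNA (1:1), recorded 3–21 days post-injection in Ringer's, pH 7.4. Currents evoked by glutamate (100 μm) with glycine (1–100 μm); antagonist applied by bath perfusion at rising concentrations, IC50 from logistic fit or linear regression for incomplete curves.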

For assay [2], the target named is T2, NMDA receptor subunits 1A/2B (Rattus norvegicus, UniProt P35439+Q00960).
T2 construct: expressed in transfected cells; host or cells: Xenopus laevis oocytes (cRNA injection; clones from Dr. P. H. Seeburg)
The assay is described as follows: Electrophysiological assay at NMDA receptor subunits expressed in Xenopus oocytes, 1A/2B. The class given is cell-based. The conditions noted are these: Xenopus oocytes; glutamate 100 μm and glycine 1-100 μm; read-out: Subunits IC50, 1A/2B. The procedure, abridged: as §1

For assay [3], the system named is Maximal Electroshock-induced Seizures. Description: Maximal electroshock-induced seizures (MES). The class given is in vivo. The following applies: Mus musculus; mice; 50 mA, 60 pulses/sec, 1 sec. (In general: In the maximal electroshock model the usual endpoint is tonic extension of the hind limbs.)
Description: Seizures were induced by application of current (50 mA, 60 pulses/sec, 0.8 sec pulse width, 1 sec duration, d.c.) through saline-coated corneal electrodes using a Ugo Basile ECT device (Model 7801). […] A tonic seizure was defined as a hindlimb extension in excess of 90 degrees from the plane of the body.
The target in assay [4] is T3, NMDA receptor subunits 1A/2C (Rattus norvegicus, UniProt P35439+Q00961).
T3 construct: expressed in transfected cells; host or cells: Xenopus laevis oocytes (cRNA injection; clones from Dr. P. H. Seeburg)
Description: Electrophysiological assay at NMDA receptor subunits expressed in Xenopus oocytes, 1A/2C. The class given is cell-based. The following applies: Xenopus oocytes; glutamate 100 μm and glycine 1-100 μm; read-out: Subunits IC50, 1A/2C. Put shortly:
as §1

pIC50: −log10 of the molar value. Where a name gives a salt, the structure may show the parent alone. A value given as a limit tells only on which side of the number the result lay.

T1 sequence (Q00959 20-1464 limits assumed, other chains not shown): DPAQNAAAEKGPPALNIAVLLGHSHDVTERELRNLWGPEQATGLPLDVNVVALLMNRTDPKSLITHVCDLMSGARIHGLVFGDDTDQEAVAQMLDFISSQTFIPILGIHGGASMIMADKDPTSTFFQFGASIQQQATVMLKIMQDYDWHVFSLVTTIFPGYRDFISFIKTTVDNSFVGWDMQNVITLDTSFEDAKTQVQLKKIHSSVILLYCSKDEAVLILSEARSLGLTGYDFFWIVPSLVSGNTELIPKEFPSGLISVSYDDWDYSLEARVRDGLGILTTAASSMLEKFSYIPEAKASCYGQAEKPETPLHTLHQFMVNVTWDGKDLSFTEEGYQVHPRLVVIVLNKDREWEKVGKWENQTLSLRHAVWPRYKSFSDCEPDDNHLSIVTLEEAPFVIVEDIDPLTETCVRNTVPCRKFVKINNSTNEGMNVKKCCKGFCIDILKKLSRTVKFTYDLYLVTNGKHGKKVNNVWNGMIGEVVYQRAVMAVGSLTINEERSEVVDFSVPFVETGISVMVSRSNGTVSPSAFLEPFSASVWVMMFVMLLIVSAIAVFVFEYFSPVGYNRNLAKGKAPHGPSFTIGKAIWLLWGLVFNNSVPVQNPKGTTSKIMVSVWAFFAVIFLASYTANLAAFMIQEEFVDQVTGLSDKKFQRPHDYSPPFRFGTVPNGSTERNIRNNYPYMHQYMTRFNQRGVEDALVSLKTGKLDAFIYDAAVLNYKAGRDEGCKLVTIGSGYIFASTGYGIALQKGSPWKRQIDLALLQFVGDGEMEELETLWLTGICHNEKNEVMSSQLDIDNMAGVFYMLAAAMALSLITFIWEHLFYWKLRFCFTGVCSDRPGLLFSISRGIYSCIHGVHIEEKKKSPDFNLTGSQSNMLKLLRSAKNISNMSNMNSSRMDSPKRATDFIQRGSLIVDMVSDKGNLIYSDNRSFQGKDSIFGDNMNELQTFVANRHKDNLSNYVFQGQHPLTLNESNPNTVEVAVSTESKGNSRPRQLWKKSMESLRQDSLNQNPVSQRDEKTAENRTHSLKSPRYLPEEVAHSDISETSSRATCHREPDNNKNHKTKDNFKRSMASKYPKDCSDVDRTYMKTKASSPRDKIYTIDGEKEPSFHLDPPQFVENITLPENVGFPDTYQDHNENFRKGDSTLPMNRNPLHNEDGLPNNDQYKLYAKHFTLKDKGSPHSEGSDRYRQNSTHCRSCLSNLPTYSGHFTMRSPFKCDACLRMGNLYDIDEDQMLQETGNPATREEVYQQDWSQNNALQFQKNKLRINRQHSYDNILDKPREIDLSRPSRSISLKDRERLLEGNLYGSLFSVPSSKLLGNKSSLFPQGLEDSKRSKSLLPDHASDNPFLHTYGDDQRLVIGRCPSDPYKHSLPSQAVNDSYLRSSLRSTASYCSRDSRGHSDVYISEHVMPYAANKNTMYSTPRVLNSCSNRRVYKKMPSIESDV
T3 sequence (Q00961 20-1237, other chains not shown): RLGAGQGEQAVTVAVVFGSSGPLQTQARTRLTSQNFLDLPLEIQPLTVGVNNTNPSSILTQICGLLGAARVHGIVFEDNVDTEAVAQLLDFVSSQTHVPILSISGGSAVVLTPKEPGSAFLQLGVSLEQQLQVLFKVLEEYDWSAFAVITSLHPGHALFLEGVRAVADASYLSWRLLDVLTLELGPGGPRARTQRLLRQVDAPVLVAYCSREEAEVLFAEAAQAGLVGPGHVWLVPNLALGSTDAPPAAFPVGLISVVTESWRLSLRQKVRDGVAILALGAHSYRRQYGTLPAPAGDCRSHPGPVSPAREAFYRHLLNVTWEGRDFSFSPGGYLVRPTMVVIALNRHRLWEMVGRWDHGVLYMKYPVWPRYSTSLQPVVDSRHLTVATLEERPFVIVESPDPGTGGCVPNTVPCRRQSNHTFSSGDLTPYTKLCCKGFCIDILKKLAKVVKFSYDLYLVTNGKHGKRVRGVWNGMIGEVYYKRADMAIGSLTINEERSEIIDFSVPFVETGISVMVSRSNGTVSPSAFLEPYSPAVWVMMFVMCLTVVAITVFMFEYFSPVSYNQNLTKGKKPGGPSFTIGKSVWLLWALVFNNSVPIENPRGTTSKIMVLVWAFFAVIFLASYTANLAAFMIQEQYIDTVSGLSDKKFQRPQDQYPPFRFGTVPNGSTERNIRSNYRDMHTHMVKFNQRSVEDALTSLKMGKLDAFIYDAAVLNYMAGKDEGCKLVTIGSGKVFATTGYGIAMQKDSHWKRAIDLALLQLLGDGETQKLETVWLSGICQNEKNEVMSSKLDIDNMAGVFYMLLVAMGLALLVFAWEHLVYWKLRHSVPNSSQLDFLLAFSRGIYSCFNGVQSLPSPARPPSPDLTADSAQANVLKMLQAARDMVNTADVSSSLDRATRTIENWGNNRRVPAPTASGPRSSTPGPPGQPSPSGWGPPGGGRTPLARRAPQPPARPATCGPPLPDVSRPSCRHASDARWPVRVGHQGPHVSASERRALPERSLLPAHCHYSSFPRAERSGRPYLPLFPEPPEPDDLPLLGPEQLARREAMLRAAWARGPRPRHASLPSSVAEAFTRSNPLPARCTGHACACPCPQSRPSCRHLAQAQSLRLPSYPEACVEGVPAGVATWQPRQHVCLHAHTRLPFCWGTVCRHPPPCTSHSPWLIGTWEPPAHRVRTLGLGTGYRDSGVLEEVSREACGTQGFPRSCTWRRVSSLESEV
T2 sequence (Q00960 27-1482, other chains not shown): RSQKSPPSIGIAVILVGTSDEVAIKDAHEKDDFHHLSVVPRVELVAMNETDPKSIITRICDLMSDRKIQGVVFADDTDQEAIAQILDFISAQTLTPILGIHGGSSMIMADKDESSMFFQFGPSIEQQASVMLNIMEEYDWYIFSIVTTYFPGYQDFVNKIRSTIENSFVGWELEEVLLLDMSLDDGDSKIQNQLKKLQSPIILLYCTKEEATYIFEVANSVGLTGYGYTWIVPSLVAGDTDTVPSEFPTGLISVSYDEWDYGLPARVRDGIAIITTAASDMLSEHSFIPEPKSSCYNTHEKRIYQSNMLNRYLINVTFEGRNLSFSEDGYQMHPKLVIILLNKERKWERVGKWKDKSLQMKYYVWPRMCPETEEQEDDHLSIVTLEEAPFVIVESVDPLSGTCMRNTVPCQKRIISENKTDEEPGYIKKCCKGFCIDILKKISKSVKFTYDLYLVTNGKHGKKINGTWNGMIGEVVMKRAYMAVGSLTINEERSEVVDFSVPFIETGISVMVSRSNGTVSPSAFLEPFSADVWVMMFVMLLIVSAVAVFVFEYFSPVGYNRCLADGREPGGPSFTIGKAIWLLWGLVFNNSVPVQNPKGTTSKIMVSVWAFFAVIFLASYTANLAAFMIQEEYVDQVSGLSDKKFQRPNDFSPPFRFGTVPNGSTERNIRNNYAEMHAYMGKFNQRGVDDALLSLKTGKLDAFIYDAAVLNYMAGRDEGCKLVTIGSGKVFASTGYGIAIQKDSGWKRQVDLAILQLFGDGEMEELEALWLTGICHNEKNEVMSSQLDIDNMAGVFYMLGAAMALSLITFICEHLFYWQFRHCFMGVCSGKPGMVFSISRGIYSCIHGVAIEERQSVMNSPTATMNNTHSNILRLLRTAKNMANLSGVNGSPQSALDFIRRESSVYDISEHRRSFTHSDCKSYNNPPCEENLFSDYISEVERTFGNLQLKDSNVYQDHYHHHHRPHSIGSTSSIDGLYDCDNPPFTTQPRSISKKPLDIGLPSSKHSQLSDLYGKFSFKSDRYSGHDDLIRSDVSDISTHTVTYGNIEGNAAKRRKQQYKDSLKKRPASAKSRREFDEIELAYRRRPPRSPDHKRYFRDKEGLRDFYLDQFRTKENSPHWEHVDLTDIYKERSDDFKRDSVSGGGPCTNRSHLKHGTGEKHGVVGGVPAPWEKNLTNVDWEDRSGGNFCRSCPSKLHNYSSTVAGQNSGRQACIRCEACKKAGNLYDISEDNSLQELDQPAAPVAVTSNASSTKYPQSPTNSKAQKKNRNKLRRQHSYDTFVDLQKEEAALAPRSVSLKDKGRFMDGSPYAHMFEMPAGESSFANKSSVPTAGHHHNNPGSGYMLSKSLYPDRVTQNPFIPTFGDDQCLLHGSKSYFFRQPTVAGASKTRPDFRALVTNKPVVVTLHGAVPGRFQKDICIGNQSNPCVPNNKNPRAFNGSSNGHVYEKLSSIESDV

One may read the ED50 as the dose at which the effect has come halfway, by size or by number of responders. With `Cc1ccc(CC2CCN(CCOc3ccc(O)c(F)c3)CC2)cc1` [Ex. 151, 1-[2-(4-Hydroxy-3-fluorophenoxy)ethyl]-4-(4-methylbenzyl)piperidine hydrochloride], the pIC50 in assay [1] is 4.28; in assay [2] it was 7.70; in assay [4], 4.00. The same compound displayed an ED50 in assay [3] of 2.5 mg/kg.
The matching figures for `Fc1ccc(CC2CCN(CCOc3ccc4[nH]c(=S)[nH]c4c3)CC2)cc1` [Ex. 175, 4-(4-Fluorobenzyl)-1-(2-(2-thioxobenzimidazol-5-oxy)ethyl)piperidine]: 4.32, 7.70, 4.15 and 8 mg/kg.
For `c1ccc(CC2CCN(CCCOc3ccccc3)CC2)cc1` [Ex. 2, 4-Benzyl-1-(3-phenoxypropyl)piperidine], in that order: 4.05, 5.96, under 4.00 and 3 mg/kg.
The matching figures for `Oc1ccc2cc(OCCN3CCC(Cc4ccccc4)CC3)ccc2c1` [Ex. 189, 4-Benzyl-1-(2-(2-hydroxynaphth-6-oxy)ethyl)piperidine]: 5.15, 7.00, 3.89 and 7 mg/kg.
With `Cc1ccc(CC2CCN(CCOc3ccc(Cl)cc3)CC2)cc1.Cl` [Ex. 168, 1-(2-(4-Chlorophenoxy)ethyl)-4-(4-methylbenzyl)piperidine hydrochloride], the pIC50 in assay [1] was under 3.52; in assay [2] it was 5.02; in assay [4], under 3.52. In assay [3], this compound displayed an ED50 of 4 mg/kg.
Consider `Cc1ccc(CC2CCN(CCOc3ccc4[nH]c(=S)[nH]c4c3)CC2)cc1` [Ex. 174, 4-(4-Methylbenzyl)-1-(2-(2-thioxobenzimidazol-5-oxy)ethyl)piperidine], for which the pIC50 in assay [1] is 4.46; in assay [2], 7.52; in assay [4] it was 4.35. The compound further came in with an ED50 in assay [3] of 5 mg/kg.
For `Cc1ccc(CC2CCN(CCOc3ccc(O)c(C)c3)CC2)c(F)c1` [Ex. 147, 1-[2-(4-Hydroxy-3-methylphenoxy)ethyl]-4-(2-fluoro-4-methylbenzyl)piperidine hydrochloride], in that order: 4.40, 7.00, 3.68 and 3 mg/kg.
The matching figures for `Oc1ccc(OCCN2CCC(Cc3cccc(F)c3)CC2)cc1` [Ex. 112, 1-[2-(4-Hydroxyphenoxy)ethyl]-4-(3-fluorobenzylpiperidine hydrochloride]: 4.52, 7.10, 3.55 and 4.5 mg/kg.
Regarding `Cc1ccc(CC2CCN(CCOc3ccc(F)cc3)CC2)cc1` [Ex. 116, 1-(2-(4-Fluorophenoxy)ethyl)-4-(4-methylbenzyl)piperidine hydrochloride], the values for the pIC50 in assay [1], in assay [2] and in assay [4] were 4.15, 5.35 and 3.82, respectively. Further, in assay [3], the ED50 was 3 mg/kg.
For the compound `O=c1[nH]c2ccc(OCCN3CCC(Cc4ccccc4)CC3)cc2[nH]1` [Ex. 59, 4-Benzyl-1-[2-(2-oxobenzimidazol-5-oxy)ethyl]piperidine], the pIC50 in assay [1] is 4.12; in assay [2], 7.62; in assay [4], under 4.00. The same compound had a median effective dose (ED50) in assay [3] of 1 mg/kg.
Regarding `Oc1ccc(OCCN2CCC(Cc3ccccc3F)CC2)cc1` [Ex. 128, 1-[2-(4-Hydroxyphenoxy)ethyl]-4-(2-fluorobenzyl)piperidine hydrochloride], the values for the pIC50 in assay [1], in assay [2] and in assay [4] were 3.96, 7.40 and under 3.52, respectively. For the same compound, in assay [3], it took a dose of 1 mg/kg to reach the 50% effect level (ED50).
Consider `Br.Br.Nc1ccc(OCCN2CCC(Cc3ccc(Cl)cc3)CC2)cc1` [Ex. 28, 1-(2-(4-Aminophenoxy)ethyl)-4-(4-chlorobenzyl)piperidine dihydrobromide], for which the pIC50 in assay [1] was 4.42; in assay [2], 6.40; in assay [4], under 4.00. Besides, in assay [3], the median effective dose (ED50) was 5 mg/kg.
For the compound `S=c1[nH]c2ccc(OCCN3CCC(Cc4ccc(Cl)cc4)CC3)cc2[nH]1` [Ex. 176, 4-(4-Chlorobenzyl)-1-(2-(2-thioxobenzimidazol-5-oxy)ethyl)piperidine], the pIC50 in assay [1] is 4.60; in assay [2], 7.52; in assay [4], 4.30. This compound also gave an ED50 in assay [3] of 7.5 mg/kg.
Take `Cc1ccc(CC2CCN(CCOc3ccc(O)cc3)CC2)cc1` [Ex. 115, 1-[2-(4-Hydroxyphenoxy)ethyl]-4-(4-methylbenzyl)piperidine hydrochloride]: the pIC50 in assay [1] is 4.12; in assay [2], 7.52; in assay [4], 3.66. For the same compound, the ED50 in assay [3] came out at 0.7 mg/kg.
For `Oc1ccc(OCCN2CCC(O)(Cc3ccc(F)cc3)CC2)cc1` [Ex. 123, 1-[2-(4-Hydroxyphenoxy)ethyl]-4-(4-fluorobenzyl)-4-hydroxy-piperidine hydrochloride], the pIC50 was 4.30 in assay [1], 7.15 in assay [2] and under 3.52 in assay [4]. Besides, the ED50 in assay [3] came out at 3 mg/kg.
In the case of `Cl.Oc1ccc(SCCN2CCC(Cc3ccc(F)cc3)CC2)cc1` [Ex. 165, 4-(4-Fluorobenzyl)-1-(2-(4-hydroxythiophenoxy)ethyl)piperidine hydrochloride], the pIC50 was 4.19 in assay [1], 7.30 in assay [2] and 3.52 in assay [4]. Also, the ED50 in assay [3] stood at 0.5 mg/kg.
On to `Br.Br.Nc1ccc(OCCN2CCC(Cc3ccccc3)CC2)cc1` [Ex. 13, 1-(2-(4-Aminophenoxy)ethyl)-4-benzylpiperidine dihydrobromide], for which the pIC50 in assay [1] is 4.05; in assay [2] it was 5.89; in assay [4], under 4.00. Also, the ED50 in assay [3] came to 6 mg/kg.
For `Cl.Oc1ccc(OCCN2CCC(Cc3ccccc3)CC2)cc1` [Ex. 99, 1-[2-(4-hydroxyphenoxy)ethyl]-4-benzylpiperidine hydrochloride], in that order: under 3.52, 7.52, under 3.52 and 2 mg/kg.
For `Clc1ccc(NC2CCN(CCCOc3ccccc3)CC2)cc1` [Ex. 40, 4-(N-(4-Chloroanilino)-1-(3-phenoxypropyl)piperidine hydrobromide], in that order: 4.10, 5.52, 4.00 and 2.5 mg/kg.
In the case of `O=c1[nH]c2ccc(OCCCN3CCC(Cc4ccccc4)CC3)cc2[nH]1` [Ex. 170, 4-Benzyl-1-[3-(2-oxobenzimidazol-5-oxy)propyl]piperidine], the pIC50 is 4.21 in assay [1], 7.40 in assay [2] and 3.64 in assay [4]. This compound also registered an ED50 in assay [3] of 10 mg/kg.
On to `S=c1[nH]c2ccc(OCCN3CCC(Cc4ccccc4)CC3)cc2[nH]1` [Ex. 171, 4-Benzyl-1-(2-(2-thioxobenzimidazol-5-oxy)ethyl)piperidine], for which the pIC50 in assay [1] is 4.14; in assay [2], 7.40; in assay [4], 3.77. For the same compound, in assay [3], the median effective dose (ED50) amounted to 5 mg/kg.
The matching figures for `Oc1ccc(C2CCN(CCCCc3ccccc3)CC2)cc1` [Ex. 167, 4-(4-Hydroxyphenyl)-1-(4-phenylbutyl)piperidine]: 3.96, 7.70, 3.52 and 0.3 mg/kg.
As to `OCCc1cccc(OCCN2CCC(Cc3ccccc3)CC2)c1` [Ex. 18, 4-Benzyl-1-(2-(3-(2-hydroxyethyl)phenoxy)ethyl)piperidine], the results for the pIC50 in assay [1], in assay [2] and in assay [4] were 4.22, 6.40 and under 4.00, respectively. For the same compound, the ED50 in assay [3] was determined as 6 mg/kg.
As for `O=c1[nH]c2cccc(OCCN3CCC(Cc4ccccc4)CC3)c2[nH]1` [Ex. 55, 4-Benzyl-1-[2-(2-oxobenzimidazol-4-oxy)ethyl]piperidine], the values for the pIC50 in assay [1], in assay [2] and in assay [4] were 4.30, 6.96 and under 4.00, respectively. Besides, the ED50 in assay [3] was 6 mg/kg.
With `Fc1cccc(OCCCN2CCC(Cc3ccc(Cl)cc3)CC2)c1` [Ex. 31, 4-(4-Chlorobenzyl)-1-(3-(3-fluorophenoxy)propyl)piperidine hydrobromide], the pIC50 in assay [1] is 4.47; in assay [2], 6.05; in assay [4], 4.22. The ED50 in assay [3] came to 7.5 mg/kg.
Turning to `O=C1Cc2cc(OCCN3CCC(Cc4ccccc4)CC3)ccc2N1` [Ex. 194, 4-Benzyl-1-(2-(2-oxo-1,3-dihydroindol-5-oxy)ethyl)piperidine], the pIC50 in assay [1] is under 3.52; in assay [2], 7.22; in assay [4], under 3.52. The same compound came in with an ED50 in assay [3] of 2.5 mg/kg.
For the compound `Cl.Oc1ccc(OCCN2CCC(Cc3c(F)cccc3F)CC2)cc1` [Ex. 146, 1-[2-(4-Hydroxyphenoxy)ethyl]-4-(2,6-difluorobenzyl)piperidine hydrochloride], the pIC50 in assay [1] is 4.52; in assay [2], 8.00; in assay [4] it was 3.80. The compound also yielded an ED50 in assay [3] of 0.8 mg/kg.
For `O=[N+]([O-])c1ccccc1OCCN1CCC(Cc2ccc(Cl)cc2)CC1` [Ex. 73, 4-(4-Chlorobenzyl)-1-[2-(2-nitrophenoxy)ethyl]piperidine], in that order: 4.52, 5.10, 4.00 and 8 mg/kg.

The values above are taken from patent publication US6124323A, “4-substituted piperidine analogs and their use as subtype selective NMDA receptor antagonists” (Warner-Lambert Company, priority 1998, dated 2000).
